The target in assay [1] is T1, human RXFP4 (Homo sapiens, UniProt Q8TDU9).
T1 construct: expressed in transfected cells; host or cells: HEK293T
Nature of the assay: Receptor activation assay, CRE-controlled NanoLuc reporter. Conditions: for activation potency towards RXFP4, in words: compared with R3/I5. Format: cell-based. The text has this: (§1) HEK293T cells transiently cotransfected with a CRE-controlled NanoLuc reporter vector and the expression construct of human RXFP3 or human RXFP4 were used for activation assays. The measured bioluminescence data are expressed as means ± SE (n = 3) and fitted to sigmoidal or linear curves using SigmaPlot 10.0.
(§2) Briefly, HEK293T cells were transiently cotransfected with the NanoLuc reporter vector pNL1.2/CRE and the expression construct of human RXFP3 or human RXFP4. On the next day, transfected cells were trypsinised, seeded into 96-well plates, and continuously cultured for 24–36 h to ~90% confluence. To initiate activation assays, medium was removed and activation solution (serum-free DMEM medium plus 1% bovine serum albumin) containing 1.0 μM of forskolin and various concentrations of peptide was added (100 μl/well). After continuous culturing at 37 °C for 4 h, activation solution was removed and cells were lysed with lysis solution (100 μl/well, Promega). Cell lysates were then transferred to a white opaque 96-well plate (50 μl/well), mixed with freshly diluted substrate (50 μl/well), and bioluminescence was immediately measured on a SpectraMax M5 plate reader (Molecular Devices) in luminescence mode. The measured data were expressed as means ± SE (n = 3) and fitted to sigmoidal or linear curves using SigmaPlot 10.0 software.

The target in assay [2] is T2, human RXFP3 (Homo sapiens, UniProt Q9NSD7).
T2 construct: expressed in transfected cells; host or cells: HEK293T
T2 sequence (Q9NSD7 1-469): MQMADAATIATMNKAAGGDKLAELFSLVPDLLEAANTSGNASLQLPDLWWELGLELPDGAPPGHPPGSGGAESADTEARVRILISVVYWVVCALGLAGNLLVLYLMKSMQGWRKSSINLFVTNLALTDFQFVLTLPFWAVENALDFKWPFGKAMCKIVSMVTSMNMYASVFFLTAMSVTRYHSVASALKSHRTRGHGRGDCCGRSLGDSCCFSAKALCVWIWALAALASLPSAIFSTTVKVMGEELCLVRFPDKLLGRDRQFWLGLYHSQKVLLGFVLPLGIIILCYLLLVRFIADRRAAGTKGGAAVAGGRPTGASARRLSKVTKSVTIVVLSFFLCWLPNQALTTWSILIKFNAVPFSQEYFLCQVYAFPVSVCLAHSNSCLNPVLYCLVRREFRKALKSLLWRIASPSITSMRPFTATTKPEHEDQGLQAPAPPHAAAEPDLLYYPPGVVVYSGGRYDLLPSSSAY
The description is as above. The assay is classed as cell-based. Conditions: CRE-NanoLuc reporter, human RXFP3; for activation potency towards RXFP3, in words: compared with R3/I5.
From the text: as §1, §2

Assay [3] addresses T1, human RXFP4. Nature of the assay: Receptor binding assay, NanoLuc-conjugated R3/I5 tracer competition. Conditions: compared with R3/I5. Here is the method: (§3) Specific binding data are expressed as means ± SE (n = 3) and fitted to sigmoidal curves using SigmaPlot 10.0 software.
(§4) Briefly, HEK293T cells were transiently transfected with an expression construct of human RXFP3 or human RXFP4. On the next day, transfected cells were trypsinised, seeded into 96-well plates, and continuously cultured for 24–36 h to ~100% confluence. […] After incubation at 21 °C for 2 h, binding solution was removed and cells were washed twice with ice-cold phosphate-buffered saline (200 μl/well for each wash). Thereafter, cells were lysed by lysis solution (100 μl/well, Promega, Madison, WI, USA) and cell lysates were transferred to a white opaque 96-well plate (50 μl/well). After mixing with freshly diluted substrate (50 μl/well), bioluminescence was immediately measured on a SpectraMax M5 plate reader (Molecular Devices, Sunnyvale, CA, USA) in luminescence mode. […] The calculated specific binding data were expressed as means ± standard error (SE; n = 3) and fitted to sigmoidal curves using SigmaPlot 10.0 software.

For assay [4], the target named is T2, human RXFP3. The description is as above. Conditions: compared with R3/I5. Here is the method:
as §3, §4

T1 sequence (Q8TDU9 whole entry): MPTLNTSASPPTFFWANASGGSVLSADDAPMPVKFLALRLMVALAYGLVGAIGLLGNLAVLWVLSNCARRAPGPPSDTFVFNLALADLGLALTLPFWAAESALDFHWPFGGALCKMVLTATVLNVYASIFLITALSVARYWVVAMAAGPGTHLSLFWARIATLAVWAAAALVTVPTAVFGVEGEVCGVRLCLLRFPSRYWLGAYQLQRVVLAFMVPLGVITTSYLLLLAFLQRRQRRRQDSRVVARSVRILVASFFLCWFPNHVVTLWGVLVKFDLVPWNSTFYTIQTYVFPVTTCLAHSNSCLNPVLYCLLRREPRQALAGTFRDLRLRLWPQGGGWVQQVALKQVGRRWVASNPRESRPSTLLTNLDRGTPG

Consider `CC[C@H](C)[C@@H]1NC(=O)[C@H](Cc2ccccc2)NC(=O)[C@H](CCC(=O)O)NC(=O)[C@H](CCCNC(=N)N)NC(=O)CNC(=O)[C@@H](NC(=O)[C@H](CC(C)C)NC(=O)[C@H](CCCNC(=N)N)NC(=O)[C@@H](NC(=O)CNC(=O)[C@H](Cc2ccc(O)cc2)NC(=O)[C@@H]2CCCN2C(=O)[C@H](C)NC(=O)[C@H](C)NC(=O)[C@H](CCCNC(=N)N)NC(=O)[C@@H]2CCC(=O)N2)C(C)C)CSSC[C@@H]2NC(=O)[C@@H](NC(=O)[C@H](CC(C)C)NC(=O)[C@@H](NC(=O)[C@H](CCC(N)=O)NC(=O)[C@H](CC(C)C)NC(=O)[C@H](CC(=O)O)NC(=O)[C@H](CCC(N)=O)NC(=O)[C@H](CCCNC(=N)N)NC(=O)[C@H](CO)NC(=O)[C@H](CCCNC(=N)N)NC(=O)[C@H](CCCNC(=N)N)NC(=O)[C@H](CO)NC(=O)[C@@H](N)CCCNC(=N)N)[C@@H](C)O)CSSC[C@H](NC(=O)CNC(=O)[C@H](CC(=O)O)NC(=O)[C@H]([C@@H](C)O)NC2=O)C(=O)N[C@@H](CO)C(=O)N[C@@H](CCSC)C(=O)N[C@@H]([C@@H](C)O)C(=O)N[C@@H](CC(=O)O)C(=O)N[C@@H](CC(C)C)C(=O)N[C@@H](CO)C(=O)N[C@@H](C)C(=O)N[C@@H](CC(C)C)C(=O)N[C@H](C(=O)O)CSSC[C@@H](C(=O)NCC(=O)N[C@@H](CCC(=O)O)C(=O)N[C@@H](CO)C(=O)N[C@@H](CCCNC(=N)N)C(=O)N[C@@H](Cc2c[nH]c3ccccc23)C(=O)O)NC(=O)[C@H]([C@@H](C)O)NC(=O)[C@H](Cc2ccccc2)NC(=O)[C@H]([C@@H](C)CC)NC(=O)[C@H](C(C)C)NC(=O)[C@H](C)NC(=O)[C@H](CCCNC(=N)N)NC1=O` [[G(B24)E]R3/I5], for which the “activation potency towards RXFP4, in words” value in assay [1] is recorded as “lost all activation potency”. In assay [2], the “activation potency towards RXFP3, in words” value is “lost all activation potency”. In addition, the “binding potency towards RXFP4, in words” value in assay [3] is given as “retained low binding potency”. Further, the “binding potency towards RXFP3, in words” value in assay [4] is given as “retained low binding potency”.

Regarding `CC[C@H](C)[C@@H]1NC(=O)[C@H](Cc2ccccc2)NC(=O)[C@H](CCC(=O)O)NC(=O)[C@H](CCCNC(=N)N)NC(=O)CNC(=O)[C@@H](NC(=O)[C@H](CC(C)C)NC(=O)[C@H](CCCNC(=N)N)NC(=O)[C@@H](NC(=O)CNC(=O)[C@H](Cc2ccc(O)cc2)NC(=O)[C@@H]2CCCN2C(=O)[C@H](C)NC(=O)[C@H](C)NC(=O)[C@H](CCCNC(=N)N)NC(=O)[C@@H]2CCC(=O)N2)C(C)C)CSSC[C@@H]2NC(=O)[C@@H](NC(=O)[C@H](CC(C)C)NC(=O)[C@@H](NC(=O)[C@H](CCC(N)=O)NC(=O)[C@H](CC(C)C)NC(=O)[C@H](CC(=O)O)NC(=O)[C@H](CCC(N)=O)NC(=O)[C@H](CCCNC(=N)N)NC(=O)[C@H](CO)NC(=O)[C@H](CCCNC(=N)N)NC(=O)[C@H](CCCNC(=N)N)NC(=O)[C@H](CO)NC(=O)[C@@H](N)CCCNC(=N)N)[C@@H](C)O)CSSC[C@H](NC(=O)CNC(=O)[C@H](CC(=O)O)NC(=O)[C@H]([C@@H](C)O)NC2=O)C(=O)N[C@@H](CO)C(=O)N[C@@H](CCSC)C(=O)N[C@@H]([C@@H](C)O)C(=O)N[C@@H](CC(=O)O)C(=O)N[C@@H](CC(C)C)C(=O)N[C@@H](CO)C(=O)N[C@@H](C)C(=O)N[C@@H](CC(C)C)C(=O)N[C@H](C(=O)O)CSSC[C@@H](C(=O)N[C@@H](CCCNC(=N)N)C(=O)N[C@@H](Cc2c[nH]c3ccccc23)C(=O)O)NC(=O)[C@H]([C@@H](C)O)NC(=O)[C@H](Cc2ccccc2)NC(=O)[C@H]([C@@H](C)CC)NC(=O)[C@H](C(C)C)NC(=O)[C@H](C)NC(=O)[C@H](CCCNC(=N)N)NC1=O` [[∆B23-25]R3/I5], the “fold lower activation potency towards RXFP4 compared with R3/I5” value in assay [1] (relative to R3/I5) is listed as ~ 30 fold. Besides, the “fold lower activation potency towards RXFP3 compared with R3/I5” value in assay [2] (relative to R3/I5) is given as ~ 30 fold. Also, the “binding potency towards RXFP4, in words” value in assay [3] was “almost normal binding potency”. The “binding potency towards RXFP3, in words” value in assay [4] is “almost normal binding potency”.

As for `CC[C@H](C)[C@@H]1NC(=O)[C@H](Cc2ccccc2)NC(=O)[C@H](CCC(=O)O)NC(=O)[C@H](CCCNC(=N)N)NC(=O)CNC(=O)[C@@H](NC(=O)[C@H](CC(C)C)NC(=O)[C@H](CCCNC(=N)N)NC(=O)[C@@H](NC(=O)CNC(=O)[C@H](Cc2ccc(O)cc2)NC(=O)[C@@H]2CCCN2C(=O)[C@H](C)NC(=O)[C@H](C)NC(=O)[C@H](CCCNC(=N)N)NC(=O)[C@@H]2CCC(=O)N2)C(C)C)CSSC[C@@H]2NC(=O)[C@@H](NC(=O)[C@H](CC(C)C)NC(=O)[C@@H](NC(=O)[C@H](CCC(N)=O)NC(=O)[C@H](CC(C)C)NC(=O)[C@H](CC(=O)O)NC(=O)[C@H](CCC(N)=O)NC(=O)[C@H](CCCNC(=N)N)NC(=O)[C@H](CO)NC(=O)[C@H](CCCNC(=N)N)NC(=O)[C@H](CCCNC(=N)N)NC(=O)[C@H](CO)NC(=O)[C@@H](N)CCCNC(=N)N)[C@@H](C)O)CSSC[C@H](NC(=O)CNC(=O)[C@H](CC(=O)O)NC(=O)[C@H]([C@@H](C)O)NC2=O)C(=O)N[C@@H](CO)C(=O)N[C@@H](CCSC)C(=O)N[C@@H]([C@@H](C)O)C(=O)N[C@@H](CC(=O)O)C(=O)N[C@@H](CC(C)C)C(=O)N[C@@H](CO)C(=O)N[C@@H](C)C(=O)N[C@@H](CC(C)C)C(=O)N[C@H](C(=O)O)CSSC[C@@H](C(=O)NCC(=O)N[C@@H](C)C(=O)N[C@@H](CO)C(=O)N[C@@H](CCCNC(=N)N)C(=O)N[C@@H](Cc2c[nH]c3ccccc23)C(=O)O)NC(=O)[C@H]([C@@H](C)O)NC(=O)[C@H](Cc2ccccc2)NC(=O)[C@H]([C@@H](C)CC)NC(=O)[C@H](C(C)C)NC(=O)[C@H](C)NC(=O)[C@H](CCCNC(=N)N)NC1=O` [[G(B24)A]R3/I5], the “activation potency towards RXFP4, in words” value in assay [1] is listed as “retained full activation potency”. Further, the “activation potency towards RXFP3, in words” value in assay [2] is listed as “retained full activation potency”. Besides, the “binding potency towards RXFP4, in words” value in assay [3] is given as “retained full binding potency”. In addition, the “binding potency towards RXFP3, in words” value in assay [4] is “retained full binding potency”.

The values above are taken from PMC5468247, “Development of a selective agonist for relaxin family peptide receptor 3” (Scientific Reports, 2017).
